What was measured:
B 16 IOF7 melanoma cells = assay: Melanogenesis inhibitory effect in B16 melanoma cells; assay type: cell-based, mouse; settings: for Minimum concentration for inhibition of melanogenesis: B16 cells cultivated 72 hours at 37° C., melanin from absorbance at 470 nm against methanol-treated control as 100%
Method: Melanogenesis inhibitory activity was evaluated using B 16 IOF7 melanoma cells (obtained from the Akita Research Institute of Food and Brewing, Japan), which are melanogenic cells of mouse cells, by application to the cells of an isolated form of Formula (1) described above in a solution diluted with the couture medium, thereby observing the production of melanin. The B16 cells, cultivated to a 70% confluent level in a flask, were washed with PBS and then were treated with a trypsin solution to isolate the cells. The same volume of a serum-containing culture medium (E-MEM, 10% FBS) as that of the trypsin was added to the flask, followed by collecting the cells and centrifuging (800 rpm, 5 min.). After this phase of the process, the number of cells was counted and adjusted to approximately 10^4 cells/ml in the culture medium (E-MEM, 10% FBS). A diluted solution of Formula (1) was prepared by placing 20 μL of sterile PBS on a cell culturing plate (a type for adherent cells) along with 20 μL of a Formula (1) solution, thereby doubling dilution (a final concentration in the culture medium from 100 μg/mL to […]). The control arbutin (a final concentration in the culture medium from 140 μg/mL to 0.22 μg/mL) in methanol was similarly diluted.
Then 80 μL of the cell suspension was added to the diluted sample solution (20 μL) on the plate, and the mixture was cultivated in a CO2 incubator at 37° C. for 72 hours. Melanogenesis in the cells was observed under a microscope. In cases where melanogenesis was confirmed microscopically, the culture medium was removed, and the cell layer was treated with 300 μL of 1N NaOH to dissolve the melanin, where the concentration of the melanin formed was determined from measurement of absorbance at 470 nm. The levels of Formula (1) and arbutin used were varied to determine their minimum concentrations needed for inhibiting melanogenesis, against the value of the methanol-treated control as 100%.

[1] = tested on: pigment deposition on brachial skin; assay: Measurement of whitening effect: lotion applied to brachial skin after exposure to sun light; assay type: in vivo, men; settings: for Decision (whitening effect): lotion, group of 20 men, applied twice everyday for 5 weeks starting five days after sun exposure; for Whitening effect of lotions, result in words: lotions of Table 2, 20 men, 5 weeks
Method: Preparation the Alcohol and Water Phases are Prepared, Mixed, and Dissolved
A test group made up of 20 men was exposed to sun light in summer for four hours per day from […]. for 2 days. Five days after the exposure to the sun light, the lotion described above was applied to the group on the brachial skin twice everyday, once each in the morning and in the evening for 5 weeks.

| Structure (SMILES) | Minimum concentration for inhibition of melanogenesis (B 16 IOF7 melanoma cells) | Microscopic observation of melanogenesis in B16 cells (B 16 IOF7 melanoma cells; 72 hours culture, compared with arbutin) | Decision (whitening effect) ([1]; content 0.2 % w/w) | Decision (whitening effect) ([1]; content 1.0 % w/w) | Whitening effect of lotions, result in words [1] |
| --- | --- | --- | --- | --- | --- |
| OC[C@H]1O[C@@H](Oc2ccc(O)cc2)[C@H](O)[C@@H](O)[C@@H]1O [Arbutin, arbutin, reference compound] | 0.88 µg/mL |  |  |  |  |
| CC(C)[C@@H](C)/C=C/[C@@H](C)[C@H]1CC[C@@H]2[C@]1(C)CCC1[C@]23C=C[C@]2(C[C@@H](O)CC[C@]12C)OO3 (stereo partly drawn) [Formula (1), 5α,8α-epidioxy-(22E,24R)-orgosta-6,22-dien-3β-ol] | 0.045 µg/mL | inhibited more extensively by Formula (1) than by arbutin | B (11 to 15 out of the group rated “Effective” or “More effective”) | A (16 or more out of the group rated “Effective” or “More effective”) | prevented pigment deposition and gave a whitening effect |
| Oc1ccc(O)cc1 [hydroquinone, reference compound] |  |  |  | C (6 to 10 out of the group rated “Effective” or “More effective”) | nor Comparative example 2 (hydroquinone) was effective |
